Experimental findings from patent US6452037B1, “Multioligonanilinated fullerenes” (priority 2001, dated 2002) are described below.

A value given as a limit tells only on which side of the number the result lay.

A short description of series [1]: Water solubility noted for the isolated product. Format: physicochemical. As for the experimental part: 200 mg F12A16 and 15.0 mL DMF were added to a dry flask containing a stirring bar and a condenser under N2. To the DMF solution were either sequentially added 1.0 mL DBU, 0.5 mL 1,4-butane sultone, and stirred at 100° C. for 12.0 hours or sequentially added 70 mg sodium hydride −30° C., stirred for 30 minutes, added 0.5 mL 1,4-butane sultone, and stirred at 60° C. for 6.0 hours. It was then quenched with 100 mL dilute HCl-acetone solution to effect precipitation of a solid. The solid was collected after centrifugation, washed twice with acetonitrile, and dissolved in 15 mL DMSO-H2O (1:5) in the presence of 100 mg Na2CO3. The DMSO-H2O solution was slowly added to acetone, resulting in precipitation of the product F12A16S. The product, in blue, was collected after centrifugation, washed with DMF and acetone, and then dried under vacuum at 40° C. to yield 210-230 mg water-soluble F12A16S.
80 mg F10A4 in 20 mL DMSO, and 60 mg sodium hydride were added into a dry flask equipped with a stirring bar and a condenser at ambient temperature under N2. The solution thus obtained was stirred for 30 minutes, followed by addition of 0.2 mL 1,4-butane sultone. The reaction mixture was slowly heated to 70° C. and stirred for 12.0 hours, and was quenched with 100 mL dilute HCl-acetonitrile solution to effect precipitation. […]

Series [2] has as its system Murine sarcoma 180 cells subcutaneous tumors. Kind of series: In vivo photodynamic therapy study in tumor-bearing mice. Set-up: species or system male ICR mice. As to conditions: 10 mg/kg intraperitoneal, 100 J/cm^2, day 30. On the procedure:
A photodynamic therapy study was conducted in male ICR mice (Charles River Japan origin Crl: CD-1® (ICR)BR). The mice were 8 weeks old, weighted 37±0.8 g, housed in polycarbonated shoe-box cages on hardwood bedding (5 mice/cage) under controlled conditions (temperature 22±1° C., relative humidity 55±15%, and light/dark cycle 12/12 hours), and allowed free access to a laboratory rodent diet (#5K55, Purina Mills, Inc., St. Louis, Mo.) and water.
Murine sarcoma 180 cells were maintained by transplantation to other mice in the abdominal cavity biweekly. Subcutaneous tumors were induced by […] injection of 1×10^7 tumor cells (about 0.1-0.15 ml ascitic fluid) to the subcutaneous region of abdominal cavities of the mice for this study, and were allowed to proliferate at the inoculation sites for 5-7 days until they reached a size with a diameter of 10±2 mm. […]
After the treatment, the mouse was examined every 5 days for 30 days. Efficacy of the irradiation therapy was evaluated by measuring the body weights and tumor volumes of the mouse. At day 30, the mice were euthanatized by carbon dioxide asphyxiation, and the weights of the body, liver, kidney, spleen, heart, and tumor, were measured. […]

Series [3] relates to Fibrosarcoma cells (CCRC 60037). Kind of series: In vitro irradiation-induced cytotoxicity, MTT cell viability, fibrosarcoma cells. Format: cell-based. As to conditions: fluorescence light irradiation time 60 minutes. On the procedure: (§1) Two types of tumor cells were used in this study, and prepared as follows: Fibrosarcoma cells (CCRC 60037) and sarcoma 180 cells (obtained form Biochemical Institute of Chung Shan Medical and Dental College, Taiwan) were maintained and cultured in an α-modified eagle medium (MEM) containing L-glutamine and phenol red. It was supplemented with 10% fetal bovine serum and antibiotics (100 units/mL of penicillin G and 100 μg/mL streptomycin sulfate). The cells were incubated in the dark in 95% humidified air plus 5% CO2, and harvested by treatment with trypsin-EDTA. The harvested cells were suspended in an α-MEM medium at the concentration of 1×10^4 cells per mL.
The cell suspension thus obtained was placed into wells of a 24-well plate (500 μL each) and pre-incubated at 37° C. for 24 hours. F10A16S solutions at various concentrations (0-10 μM) were then added to the wells (500 μL each). The wells were irradiated with fluorescence light (27 watts) for 0-60 minutes. The distance between the plate cover and the light source was set at 5-6 cm. After irradiation, the cells were further incubated for 48 hours. […] The absorbance at 540 nm was correlated with the quantity of formazon, and thus with the quantity of dehydrogenase enzyme or the relative number of living cells (i.e., viability). […]

The test system of series [4] is Fibrosarcoma cells (CCRC 60037) and sarcoma 180 cells. Kind of series: In vitro irradiation-induced cytotoxicity, MTT cell viability, tumor cells (cell type not specified for the result). It is filed as cell-based. On the procedure:
as §1
The cell suspension thus obtained was placed into wells of a 24-well plate (500 μL each) and pre-incubated at 37° C. for 24 hours. F10A16S solutions at various concentrations (0-10 μM) were then added to the wells (500 μL each). The wells were irradiated with fluorescence light (27 watts) for 0-60 minutes. The distance between the plate cover and the light source was set at 5-6 cm. After irradiation, the cells were further incubated for 48 hours. A solution of 3-(4,5-dimethylthiazol-2-yl)-2,5-diphenyl-tetrazolium bromide (MTT, 100 μL, 0.5% in PBS, 100 μL each) was then added to each of the wells to react with mitochrondrial dehydrogenase in the living cells to produce formazon. Each cell suspension was again incubated at 37° C. for 3 hours. The suspension medium was then discarded. Formazon formed in cells from each well was then extracted with DMSO (1.0 mL each). The DMSO extract solution was immediately used for optical measurement. The absorbance at 540 nm was correlated with the quantity of formazon, and thus with the quantity of dehydrogenase enzyme or the relative number of living cells (i.e., viability). […] With an irradiation time of 60 minutes, a sharp loss of viable cells was observed when F10A16S concentration was increased from 2.5 to 5.0 μM. A maximal photodynamic cytotoxicity efficacy of >90% was obtained at an F10A16S concentration of 5.0-10.0 μM and an irradiaion time of 60 minutes.

The test system of the next series is ferricytochrome C. The series is described as follows: In vitro irradiation-induced superoxide generation (ferricytochrome C reduction, absorbance at 550 nm). To be noted: 25 μM F10A4S, fluorescence light 27 watts, irradiation time 0, 30, 60, 90 minutes. As for the experimental part: The solution thus obtained was added to each well of a 24-well plate, and exposed to fluorescence light source (27 watts) for 0-90 min. The distance between the plate cover and the light source was set at 5-6 cm. The extent of reduction of ferricytochrome C to ferrocytochrome C was evaluated by optical measurement. The increase of the absorbance at 550 nm corresponded to the increase of the quantity of ferrocytochrome C.
In a separate experiment, the presence of superoxide radicals in the solution was confirmed by selective removal of superoxide radicals with superoxide dismutase (SOD, 75 or 150 units).

As for “sulfobutylated fullerene dodeca(hexadecaanilino)adduct [F12A16S]”, the solubility in water result in series [1] is recorded as “water-soluble”.
One may read the IC50 as the midpoint of a concentration-inhibition curve. The low end stands for inhibition by little substance, the high end for a need for much substance. As to deca(hexadecaanilino)adduct [F10A16S], the “tumor weight less than that of the tumor control group” value in series [2] (laser irradiation at 514 nm) is “roughly 60%”; in series [2] (laser irradiation at 633 nm) it was roughly 99%. Besides, the midpoint of inhibition in series [3], the IC50, lay at 2900 nM. The “cell viability with irradiation” value in series [4] (0-10 μM, irradiation 0-60 minutes) was “decrease in cell viability in both dose-dependent and irradiation time-dependent manners”. Besides, in series [4] (5.0-10.0 μM, irradiation time 60 minutes), the “maximal photodynamic cytotoxicity efficacy” value is given as greater than 90%. For the same substance, the “cytotoxicity in the absence of light irradiation” value in series [4] (no irradiation, highest concentration 10 μM) is “no cystoxicity was observed”.
Turning to “sulfobutylated deca(tetraanilino)-pentakis(methano)-[60]fullerene decacarbamide [F10A4S]”, in series [1], the solubility in water entry was “water-soluble”. Besides, the “production of superoxide radicals upon irradiation” value in the series with ferricytochrome C was “increase systematically in a time-dependent manner”.
